Data reported in US20150274661A1, “INDOL-AMIDE COMPOUNDS AS BETA-AMYLOID INHBITORS” (Hoffmann-La Roche Inc., priority 2012, published 2015).

System: Aβ42 secretion
Assay: Cellular γ-secretase assay (inhibition of Aβ42 secretion)
Assay type: cell-based
Conditions: human neuroglioma H4 cells overexpressing human APP, 22 hours incubation
How it was run: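 H4 neuroglioma cells overexpressing human APP were exposed to compounds (ten-point dilution series, 0.4% DMSO) for 22 h at 37°C. Secreted Aβ42 in supernatant measured by electrochemiluminescence sandwich immunoassay (ruthenylated BAP15 detection, biotinylated 6E10 capture on streptavidin beads). IC50 by nonlinear regression.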

Row | SMILES | EC50 (Homo sapiens, 22 h) [nM] | EC50 [nM]
1 | CC(c1ccc2[nH]c(C(=O)Nc3cc(F)cc(F)c3)cc2c1)C1CCN(CC(F)(F)F)C1 (stereo not drawn) [Example 96, N-(3,5-Difluorophenyl)-5-(1-(1-(2,2,2-trifluoroethyl)pyrrolidin-3-yl)ethyl)-1H-indole-2-carboxamide] | 7720 | –
2 | C=C(CCN1CCCCC1)c1ccc2[nH]c(C(=O)Nc3cc(F)cc(F)c3)cc2c1 [Example 97, N-(3,5-Difluorophenyl)-5-(4-(piperidin-1-yl)but-1-en-2-yl)-1H-indole-2-carboxamide] | 1260 | –
3 | CC(CCN1CCCCC1)c1ccc2[nH]c(C(=O)Nc3cc(F)cc(F)c3)cc2c1 (stereo not drawn) [Example 98, N-(3,5-Difluorophenyl)-5-(4-(piperidin-1-yl)butan-2-yl)-1H-indole-2-carboxamide] | 1040 | –
4 | O=C(Nc1ccc(F)c(F)c1)c1cc2cc(C(O)CN3CCCCC3)ccc2[nH]1 (stereo not drawn) [Example 100, 5-(1-Hydroxy-2-piperidin-1-yl-ethyl)-1H-indole-2-carboxylic acid (3,4-difluoro-phenyl)-amide] | 2610 | –
5 | O=C(Nc1cc(F)cc(F)c1)c1cc2cc(/C=C/N3C(=O)[C@@H]4CC[C@H]3C4)ccc2[nH]1 [Example 101, 5-[(E)-2-((1S,4R)-3-Oxo-2-aza-bicyclo[2.2.1]hept-2-yl)-vinyl]-1H-indole-2-carboxylic acid (3,5-difluoro-phenyl)-amide] | 3830 | –
6 | CN1CC[C@@H](c2ccc3[nH]c(C(=O)Nc4cc(F)cc(F)c4)cc3c2)C1 [Example 102, 5-((S)-1-Methyl-pyrrolidin-3-yl)-1H-indole-2-carboxylic acid (3,5-difluoro-phenyl)-amide] | – | 300
7 | CN1CC[C@H](c2ccc3[nH]c(C(=O)Nc4cc(F)cc(F)c4)cc3c2)C1 [Example 103, 5-((R)-1-Methyl-pyrrolidin-3-yl)-1H-indole-2-carboxylic acid (3,5-difluoro-phenyl)-amide] | – | 374
8 | O=C(Nc1cc(F)cc(F)c1)c1cc2cc([C@@H]3CCN(CC(F)(F)F)C3)ccc2[nH]1 [Example 104, 5-[(S)-1-(2,2,2-Trifluoro-ethyl)-pyrrolidin-3-yl]-1H-indole-2-carboxylic acid (3,5-difluoro-phenyl)-amide] | 528 | –
9 | CC(C)C(=O)N1CC[C@H](c2ccc3[nH]c(C(=O)Nc4cc(F)cc(F)c4)cc3c2)C1 [Example 105, 5-((R)-1-Isobutyryl-pyrrolidin-3-yl)-1H-indole-2-carboxylic acid (3,5-difluoro-phenyl)-amide] | 1210 | –
10 | CC(C)C(=O)N1CC[C@@H](c2ccc3[nH]c(C(=O)Nc4cc(F)cc(F)c4)cc3c2)C1 [Example 106, 5-((S)-1-Isobutyryl-pyrrolidin-3-yl)-1H-indole-2-carboxylic acid (3,5-difluoro-phenyl)-amide] | 889 | –
11 | CC(C)S(=O)(=O)N1CCC(c2ccc3[nH]c(C(=O)Nc4cc(F)cc(F)c4)cc3c2)C1 (stereo not drawn) [Example 107] | – | 628
12 | CC(=O)N1CCC[C@H](c2ccc3[nH]c(C(=O)Nc4cc(F)cc(F)c4)cc3c2)C1 [Example 112, 5-((R)-1-Acetyl-piperidin-3-yl)-1H-indole-2-carboxylic acid (3,5-difluoro-phenyl)-amide] | 226 | –
13 | CC(=O)N1CCC[C@@H](c2ccc3[nH]c(C(=O)Nc4cc(F)cc(F)c4)cc3c2)C1 [Example 113, 5-((S)-1-Acetyl-piperidin-3-yl)-1H-indole-2-carboxylic acid (3,5-difluoro-phenyl)-amide] | 1790 | –
14 | C[C@@H](c1ccc2[nH]c(C(=O)Nc3cc(F)cc(F)c3)cc2c1)[C@@H]1CCN(CC(F)(F)F)C1 [Example 120, N-(3,5-Difluorophenyl)-5-((R)-1-((S)-1-(2,2,2-trifluoroethyl)pyrrolidin-3-yl)ethyl)-1H-indole-2-carboxamide] | 7420 | –
15 | C[C@@H](c1ccc2[nH]c(C(=O)Nc3cc(F)cc(F)c3)cc2c1)[C@H]1CCN(CC(F)(F)F)C1 [Example 121, N-(3,5-Difluorophenyl)-5-((R)-1-((R)-1-(2,2,2-trifluoroethyl)pyrrolidin-3-yl)ethyl)-1H-indole-2-carboxamide] | 7480 | –
16 | CC(=O)N1CC[C@@H]([C@H](C)c2ccc3[nH]c(C(=O)Nc4cc(F)cc(F)c4)cc3c2)C1 [Example 122, 5-((S)-1-((S)-1-Acetylpyrrolidin-3-yl)ethyl)-N-(3,5-difluorophenyl)-1H-indole-2-carboxamide] | 2070 | –

The remaining lines, values ahead:

Row | EC50 (Homo sapiens, 22 h) [nM] | EC50 [nM] | SMILES
17 | 1240 | – | CC(CN1CCCC1)c1ccc2[nH]c(C(=O)Nc3cccc(F)c3)cc2c1 (stereo not drawn) [Example 99, N-(3-Fluorophenyl)-5-(1-(pyrrolidin-1-yl)propan-2-yl)-1H-indole-2-carboxamide]
18 | 646 | – | N#CCN1CC[C@H](c2ccc3[nH]c(C(=O)Nc4cccc(F)c4)cc3c2)C1 [Example 108, (R)-5-(1-(Cyanomethyl)pyrrolidin-3-yl)-N-(3-fluorophenyl)-1H-indole-2-carboxamide]
19 | 472 | – | N#CCN1CC[C@@H](c2ccc3[nH]c(C(=O)Nc4cccc(F)c4)cc3c2)C1 [Example 109, (S)-5-(1-(Cyanomethyl)pyrrolidin-3-yl)-N-(3-fluorophenyl)-1H-indole-2-carboxamide]
20 | 116 | – | CC(C)N1CCC[C@H](c2ccc3[nH]c(C(=O)Nc4cccc(F)c4)cc3c2)C1 [Example 110, 5-((R)-1-Isopropyl-piperidin-3-yl)-1H-indole-2-carboxylic acid (3-fluoro-phenyl)-amide]
21 | 876 | – | CC(C)N1CCC[C@@H](c2ccc3[nH]c(C(=O)Nc4cccc(F)c4)cc3c2)C1 [Example 111, 5-((S)-1-Isopropyl-piperidin-3-yl)-1H-indole-2-carboxylic acid (3-fluoro-phenyl)-amide]
22 | 273 | – | O=C(Nc1cccc(F)c1)c1cc2cc([C@H]3CCCN(CCO)C3)ccc2[nH]1 [Example 114, (R)—N-(3-Fluorophenyl)-5-(1-(2-hydroxyethyl)piperidin-3-yl)-1H-indole-2-carboxamide]
23 | 1500 | – | O=C(Nc1cccc(F)c1)c1cc2cc([C@@H]3CCCN(CCO)C3)ccc2[nH]1 [Example 115, (S)—N-(3-Fluorophenyl)-5-(1-(2-hydroxyethyl)piperidin-3-yl)-1H-indole-2-carboxamide]
24 | 545 | – | O=C(Nc1cccc(F)c1)c1cc2cc([C@H]3CCCN(C4CC4)C3)ccc2[nH]1 [Example 116, (R)-5-(1-Cyclopropylpiperidin-3-yl)-N-(3-fluorophenyl)-1H-indole-2-carboxamide]
25 | 4360 | – | O=C(Nc1cccc(F)c1)c1cc2cc([C@@H]3CCCN(C4CC4)C3)ccc2[nH]1 [Example 117, (S)-5-(1-Cyclopropylpiperidin-3-yl)-N-(3-fluorophenyl)-1H-indole-2-carboxamide]
26 | 753 | – | C[C@H](CN1CCCC1)c1ccc2[nH]c(C(=O)Nc3cccc(F)c3)cc2c1 [Example 118]
27 | 1730 | – | C[C@@H](CN1CCCC1)c1ccc2[nH]c(C(=O)Nc3cccc(F)c3)cc2c1 [Example 119]
